{"source": "patent US20090186915A1", "about": "“Compositions and methods for treatment of glioblastoma, gliosarcoma, NSCLC, and head and neck cancer” (Unibioscreen S. A., priority 2006, published 2009)", "key": {"DU-145 [1]": {"test_system": "DU-145", "test": "Autophagy: acidic vesicular organelles, acridine orange flow cytometry, DU-145", "format": "cell-based, human", "conditions": "red fluorescence, up to 10 μM", "description": "The cytoplasm and nucleus fluoresce green in acridine orange-stained cells, and the acidic compartments fluoresce red. The intensity of the red fluorescence is proportional to the degree of acidity and the volume of acidic vesicular organelles, including autophagic vacuoles. To quantify the development of acidic vesicular organelles, the cells were stained with acridine orange for 15 minutes and removed from the plate with trypsinization. Cells were then analyzed by flow cytometry. Each sample was evaluated in triplicate."}, "[2]": {"test": "UNBS5162 mouse pharmacokinetics", "format": "in vivo", "description": "Mouse in-life phase. Female B6D2F1 mouse (Charles River, L'Arbresle, France) were administered a single i.v. bolus injection of 20 mg/kg or a single oral dose of 80-mg/kg UNBS5162 as a solution (formulated in 0.5% lactic acid). Dosing volume was 10 ml/kg body weight. The i.v. injection was performed through the tail vein, and the oral dose was given by gavage. Blood sampling for pharmacokinetic analysis was performed by cardiac puncture after Nembutal intraperitoneal injection. The blood was collected over Li-heparin at 0.05, 0.08, 0.17, 0.25, 0.33, 0.5, 0.75, 1, 2, 4, 7, 16, and 24 hours after dose. Five animals were used per time point. Blood was kept on ice for a maximum of 2 hours before isolating plasma by centrifugation, and the resulting plasma was stored at approximately −70° C. until analysis. The samples were subsequently analyzed for UNBS5162 by liquid chromatography-mass spectrometry.\nPlasma concentrations of UNBS5162 were determined using liquid chromatography-mass spectrometry. […] Briefly, solid phase extraction was performed using SPE Oasis HLB columns of 1 ml (Waters). UNBS5162 and the internal standard UNBS5181 were eluted using methanol, evaporated to dryness and reconstituted in starting solvent, a mixture (90:10 v/v) of 0.05% aqueous formic acid (mobile phase A) and 0.05% formic acid in acetonitrile (mobile phase B). Liquid chromatographic separation was effected using an Atlantis T3 column (50×2.1 mm; 3 μm), with an isocratic method with a 90:10 v/v ratio of mobile phases A/B at a flow rate of 250 μl/min for 12.5 minutes, followed by 2 minutes of 100% mobile phase B and then 4.5 minutes reconditioning with the starting solvent at a flow rate of 250 μl/min. Compound detection and quantification were performed by positive ion electrospray ionization on a QToF Ultima mass spectrometer (Micromass, Manchester, UK)."}, "CFC-GEMM": {"test_system": "CFC-GEMM", "test": "HALO hematotoxicity assay, mouse CFC-GEMM", "format": "cell-based", "conditions": "5 days culture, iATP", "description": "Investigation of the hematotoxic potential of UNBS5162 was undertaken by HemoGenix (Colorado Springs, Colo.). The effects of UNBS5162 on stem and progenitor cell populations from murine and human bone marrow were assessed using HALO (Hematopoietic/Hematotoxicity Assay through Luminescence Output) technology. Stem and hematopoietic progenitor cell populations were isolated from mouse and human bone marrow samples, plated at a concentration of 1.0×10^4 cells/well and cultured for 5 and 7 days, respectively, in the presence of growth factors and increasing concentrations of UNBS5162 ranging from 0.5 nM to 50 μM. The proliferative or growth potential of cell populations was determined from intracellular ATP (iATP) concentrations and a luciferin/luciferase bioluminescence signal detection system. All samples were assayed in eight replicates. The results are presented as estimated inhibitory concentration (IC) values."}, "DU-145 [3]": {"test_system": "DU-145", "test": "Quantitative videomicroscopy, DU-145", "format": "cell-based, human", "conditions": "1 μM", "description": "Use was made of computer-assisted phase-contrast microscopy (quantitative videomicroscopy) in the attempt to elucidate an overall picture of UNBS5162's mechanism of action. […] In addition, 10 μM UNBS5162 caused a marked enlargement in PC-3 cells by the end of the 6-day treatment period compared with the start of the experiment."}, "Rb, pRb": {"test_system": "Rb, pRb", "test": "Western blot of Rb and p-Rb, PC-3", "format": "cell-based, human", "conditions": "10 μM, 48 and 72 hours", "description": "Cell extracts were prepared by the lysis of subconfluent PC-3 cells directly in boiling lysis buffer (10 mM Tris, pH 7.4, 1 mM Na3O4V, 1% SDS, pH 7.4). Approximately 40 μg of extracted proteins (evaluated by the bicinchoninic acid protein assay; Pierce, Perbio Science, Erembodegem, Belgium) was then loaded onto a denaturing polyacrylamide gel. The proteins submitted to Western blot analyses were detected using primary antibodies provided by: 1) CST Technologies, Bioké, Leiden, The Netherlands: Rb (1:2000) and p-Rb (1:1000); 2) BD Transduction Laboratories, Erembodegem, Belgium: E2F1 (1:400); and 3) AbCam, Cambridge, UK: tubulin (1:3000, used as a loading control). The antibody for LC-3 protein (1:500) was kindly provided by Dr. Yasuko Kondo. Western blot analyses were performed as detailed previously."}, "[4]": {"conditions": "B6D2F1, mouse, plasma, iv, female mice, i.v. 20 mg/kg single"}, "[5]": {"conditions": "B6D2F1, mouse, plasma, po, female mice, p.o. 80 mg/kg single"}}}
{"smiles": "CN(C)CCN1C(=O)c2cccc3cc(NC(N)=O)cc(c23)C1=O", "note": "[UNBS5162, N-{2-[2-(dimethylamino)ethyl]-1,3-dioxo-2,3-dihydro-1H-benzo[de]isoquinolin-5-yl}urea]", "values": [{"measurement": "pro-autophagic effects (acidic vesicular organelles)", "setting": "DU-145 [1]", "result": "had a proautophagic effect"}, {"measurement": "pro-autophagic effects (acidic vesicular organelles)", "setting": "DU-145 [1]; listed as example 2", "result": "pro-autophagic effects"}, {"measurement": "AUC(0-inf)", "setting": "[2]; [4]", "result": 5770, "unit": "ng·h/mL"}, {"measurement": "Cmax", "setting": "[2]; [4]", "result": 12000, "unit": "ng/mL"}, {"measurement": "Vd", "setting": "[2]; [4]", "result": 18.9, "unit": "L/kg"}, {"measurement": "half-life", "setting": "[2]; [4]", "result": 3.8, "unit": "h"}, {"measurement": "bioavailability", "setting": "[2]; B6D2F1, mouse, plasma, oral, female mice, p.o. 80 mg/kg versus i.v. 20 mg/kg, read-out: F (absolute bioavailability)", "result": 3.84, "unit": "%"}, {"measurement": "AUC(0-inf)", "setting": "[2]; [5]", "result": 886, "unit": "ng·h/mL"}, {"measurement": "Cmax", "setting": "[2]; [5]", "result": 510, "unit": "ng/mL"}, {"measurement": "Tmax", "setting": "[2]; [5]", "result": 0.3, "unit": "h"}, {"measurement": "Cl", "setting": "[2]; female mice, i.v. 20 mg/kg single", "result": 3.47, "unit": "L/h per kilogram"}, {"measurement": "time for which 1-μM plasma levels are sustained", "setting": "[2]; mice, post-i.v. 20 mg/kg", "result": "≤ 2", "unit": "h"}, {"measurement": "time for which plasma levels of 10 μM are maintained", "setting": "[2]; mice, post-i.v. 20 mg/kg", "result": "approximately 30 minutes"}, {"measurement": "IC50", "setting": "CFC-GEMM; 120 h", "result": 6.22, "unit": "µM"}, {"measurement": "IC90", "setting": "CFC-GEMM; 120 h", "result": 8.96, "unit": "µM"}, {"measurement": "IC75", "setting": "CFC-GEMM", "result": 7.48, "unit": "µM"}, {"measurement": "cell dynamics (videomicroscopy)", "setting": "DU-145 [3]", "result": "induced no detectable changes"}, {"measurement": "Rb protein expression", "setting": "Rb, pRb", "result": "completely abolished Rb protein expression"}]}
